Test results from patent US10918642B2, “N-(substituted-phenyl)-sulfonamide derivatives as kinase inhibitors” (Nerviano Medical Sciences S.R.L., priority 2016, dated 2021).

Biological target: PERK recombinant enzyme (cytoplasmic domain corresponding to residues 540-1115) (Homo sapiens (Human), UniProt Q9NZJ5)
Experiment: PERK enzyme assay, Method 2: quantification of phosphorylated product with ATP/P33 gammaATP (Dowex resin)
Type: biochemical
Conditions: Method 2 (P33 gammaATP radiometric); 52 microM ATP, 8 nM PERK, 300 microM eIF2alpha peptide substrate, 60 minutes at room temperature
Protocol: The biochemical activity of compounds was determined by incubation with PERK recombinant enzyme (cytoplasmic domain corresponding to residues 540-1115) and elF2alpha peptide substrate (Aminoacid sequence: LLSELSRRRIRSINK—SEQ ID Nr: 1; purchased from American Peptide Company, product #341923). This was followed by:
Method 2: Quantification of the Phosphorylated Product Formed from the Kinase Reaction in Presence of ATP (Aldrich, Cat #A2620-9).
Serially diluted compounds were incubated for 60 minutes at room temperature in the presence of ATP/P^33 gammaATP mix, substrate and enzyme in a volume of 15 microL of kinase buffer in 384-well plates (Thermo Scientific, cat #4312).
The reaction volume contains, in final concentration, 52 microM ATP, 8 nM PERK and 300 microM substrate in 50 mM Hepes pH 7.5, 3 mM MgCl2, 1 mM DTT, 3 microM Na3VO4, 0.2 mg/ml BSA. The final concentration of DMSO was 1%.
At the end of the incubation, an amount of 60 microL of Dowex resin (Sigma, customized resin 1×8 200-400 mesh cat #13858-U) in 150 mM sodium formate buffer pH=3.0 was added to stop the reaction and capture unreacted ATP/P^33 gammaATP, separating it from the phosphorylated substrate in solution. After 60 minutes of rest, a volume of 22 microL of supernatant was transferred into 384-Optiplates (Perkin-Elmer, cat #6007290). After the addition of 50 microL of Microscint 40 (Perkin-Elmer, cat #6013641), the radioactivity was counted in the TopCount (Perkin Elmer).
The data per each molecule are analyzed by an internally customized version of the SW package “Assay Explorer”, or by GraphPad Prizm software alternatively, which provides sigmoidal fittings of the curves for IC50 determination using a 4 parameter logistic equation: y=bottom+(top−bottom)/(1+10^((log IC50−x)*slope))
where x is the logarithm of the inhibitor concentration, y is the response; y starts at bottom and goes to top with a sigmoid shape.

PERK recombinant enzyme (cytoplasmic domain corresponding to residues 540-1115), sequence (Q9NZJ5 540-1115): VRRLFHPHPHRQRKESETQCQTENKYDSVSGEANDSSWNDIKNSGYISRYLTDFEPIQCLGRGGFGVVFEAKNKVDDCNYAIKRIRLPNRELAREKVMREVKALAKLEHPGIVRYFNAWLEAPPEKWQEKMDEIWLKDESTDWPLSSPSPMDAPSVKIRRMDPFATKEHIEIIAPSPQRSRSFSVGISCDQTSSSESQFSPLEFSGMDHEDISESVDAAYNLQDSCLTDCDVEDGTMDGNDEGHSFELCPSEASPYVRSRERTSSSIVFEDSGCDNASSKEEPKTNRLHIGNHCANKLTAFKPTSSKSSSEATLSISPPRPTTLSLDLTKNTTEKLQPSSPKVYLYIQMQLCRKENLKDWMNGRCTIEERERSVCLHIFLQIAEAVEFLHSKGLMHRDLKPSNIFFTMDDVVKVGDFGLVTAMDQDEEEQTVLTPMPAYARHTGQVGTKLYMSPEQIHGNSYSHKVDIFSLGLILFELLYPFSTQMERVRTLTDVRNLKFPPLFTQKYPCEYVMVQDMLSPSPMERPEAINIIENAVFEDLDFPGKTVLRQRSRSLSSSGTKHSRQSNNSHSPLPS

Row | SMILES | IC50 | pIC50
1 | COc1ccc(S(=O)(=O)Nc2cccc(-c3nn(C4CCN(C)CC4)c4ncnc(N)c34)c2F)cc1Cl [cmpd 66, N-{3-[4-Amino-1-(1-methyl-piperidin-4-yl)-1H-pyrazolo[3,4-d]pyrimidin-3-yl]-2-fluoro-phenyl}-3-chloro-4-methoxy-benzenesulfonamide] | 0.0501 to 0.158 µM | 
2 | CN1CCC(n2cc(-c3cccc(NS(=O)(=O)c4ccc(Br)cc4F)c3F)c3c(N)ncnc32)CC1 [cmpd 72, N-{3-[4-Amino-7-(1-methyl-piperidin-4-yl)-7H-pyrrolo[2,3-d]pyrimidin-5-yl]-2-fluoro-phenyl}-4-bromo-2-fluoro-benzenesulfonamide] | 0.0158 to 0.0501 µM | 
3 | COc1ccc(S(=O)(=O)Nc2cccc(-c3nn(C4CCNCC4)c4ncnc(N)c34)c2F)cc1Cl [cmpd 63, N-[3-(4-Amino-1-piperidin-4-yl-1H-pyrazolo[3,4-d]pyrimidin-3-yl)-2-fluoro-phenyl]-3-chloro-4-methoxy-benzenesulfonamide] | 0.0158 to 0.0501 µM | 
4 | CN1CCC(n2cc(-c3cccc(NS(=O)(=O)c4ccc(Br)s4)c3F)c3c(N)ncnc32)CC1 [cmpd 77, 5-Bromo-thiophene-2-sulfonic acid {3-[4-amino-7-(1-methyl-piperidin-4-yl)-7H-pyrrolo[2,3-d]pyrimidin-5-yl]-2-fluoro-phenyl}-amide] | 0.0158 to 0.0501 µM | 
5 | Cn1cc(-c2cccc(NS(=O)(=O)C3CCCCC3)c2F)c2c(N)ncnc21 [cmpd 89, Cyclohexanesulfonic acid [3-(4-amino-7-methyl-7H-pyrrolo[2,3-d]pyrimidin-5-yl)-2-fluoro-phenyl]-amide] |  | C (pIC50 < 6.8)
6 | COc1cc(F)c(S(=O)(=O)Nc2cccc(-c3nn(C4CCN(C(C)C)CC4)c4ncnc(N)c34)c2F)cc1Cl [cmpd 65, N-{3-[4-Amino-1-(1-isopropyl-piperidin-4-yl)-1H-pyrazolo[3,4-d]pyrimidin-3-yl]-2-fluoro-phenyl}-5-chloro-2-fluoro-4-methoxy-benzenesulfonamide] | 0.0501 to 0.158 µM | 
7 | COc1cc(F)c(S(=O)(=O)Nc2cccc(-c3nn(C4CCNCC4)c4ncnc(N)c34)c2F)cc1Cl [cmpd 62, N-[3-(4-Amino-1-piperidin-4-yl-1H-pyrazolo[3,4-d]pyrimidin-3-yl)-2-fluoro-phenyl]-5-chloro-2-fluoro-4-methoxy-benzenesulfonamide] | 0.0158 to 0.0501 µM | 
8 | COc1cc(F)c(S(=O)(=O)Nc2cccc(-c3cn(C)c4ncnc(N)c34)c2C#N)cc1Cl [cmpd 90, N-[3-(4-Amino-7-methyl-7H-pyrrolo[2,3-d]pyrimidin-5-yl)-2-cyano-phenyl]-5-chloro-2-fluoro-4-methoxy-benzenesulfonamide] | 0.0501 to 0.158 µM | 
9 | COc1ccc(S(=O)(=O)Nc2cccc(-c3nn(C4CCN(C(=O)OC(C)(C)C)CC4)c4ncnc(N)c34)c2F)cc1Cl [cmpd 11, 4-{4-Amino-3-[3-(3-chloro-4-methoxy-benzenesulfonylamino)-2-fluoro-phenyl]-pyrazolo[3,4-d]pyrimidin-1-yl}-piperidine-1-carboxylic acid tert-butyl ester] |  | C (pIC50 < 6.8)
10 | COc1cc(F)c(S(=O)(=O)Nc2cccc(-c3nn(C4CCN(C(=O)OC(C)(C)C)CC4)c4ncnc(N)c34)c2F)cc1Cl [cmpd 10, 4-{4-Amino-3-[3-(5-chloro-2-fluoro-4-methoxy-benzenesulfonylamino)-2-fluoro-phenyl]-pyrazolo[3,4-d]pyrimidin-1-yl}-piperidine-1-carboxylic acid tert-butyl ester] |  | C (pIC50 < 6.8)
11 | COc1cc(F)c(S(=O)(=O)Nc2cccc(-c3cn(C4CCN(C)CC4)c4ncnc(N)c34)c2F)cc1C [cmpd 73, N-{3-[4-Amino-7-(1-methyl-piperidin-4-yl)-7H-pyrrolo[2,3-d]pyrimidin-5-yl]-2-fluoro-phenyl}-2-fluoro-4-methoxy-5-methyl-benzenesulfonamide] |  | AA (7.8 ≤ pIC50)
12 | COc1cc(F)c(S(=O)(=O)Nc2cccc(-c3nn(C4CCN(C)CC4)c4ncnc(N)c34)c2F)cc1Cl [cmpd 61, N-{3-[4-Amino-1-(1-methyl-piperidin-4-yl)-1H-pyrazolo[3,4-d]pyrimidin-3-yl]-2-fluoro-phenyl}-5-chloro-2-fluoro-4-methoxy-benzenesulfonamide] | 0.0158 to 0.0501 µM | 
13 | CN1CCC(n2cc(-c3cccc(NS(=O)(=O)c4ccc(Cl)c(Cl)c4)c3F)c3c(N)ncnc32)CC1 [cmpd 71, N-{3-[4-Amino-7-(1-methyl-piperidin-4-yl)-7H-pyrrolo[2,3-d]pyrimidin-5-yl]-2-fluoro-phenyl}-3,4-dichloro-benzenesulfonamide] |  | AA (7.8 ≤ pIC50)
14 | COc1cc(S(=O)(=O)Nc2cccc(-c3cn(C)c4ncnc(N)c34)c2F)c(F)cc1Cl [cmpd 79, N-[3-(4-Amino-7-methyl-7H-pyrrolo[2,3-d]pyrimidin-5-yl)-2-fluoro-phenyl]-4-chloro-2-fluoro-5-methoxy-benzenesulfonamide] | 0.0158 to 0.0501 µM | 
